# In patent US6737383B1, “Herbicidal oxadiazolidines” (priority 1999, dated 2004):
# Key:
# Italian ryegrass = test: Test E Italian ryegrass; type: in vivo, Lolium multiflorum; details: Preemergence
# winter wheat [1] = test: Test E winter wheat; type: in vivo, Triticum aestivum; details: Postemergence
# In short: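 Visual evaluation versus untreated controls after about 21 to 28 days in the greenhouse. Compound was in a surfactant-containing non-phytotoxic solvent; postemergence plants were treated at the 1- to 4-leaf stage, grown in a 60:40 sandy loam and potting mix blend.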
# winter wheat [2] = test: Test E winter wheat; type: in vivo, Triticum aestivum; details: Preemergence
# cocklebur = test: Test B pre/postemergence cocklebur; type: in vivo, Xanthium strumarium
# In short: (§1)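 Test chemicals in a non-phytotoxic solvent mixture with surfactant were sprayed preemergence onto planted seeds and postemergence onto plants 2 to 18 cm tall (1- to 4-leaf stage). After twelve to sixteen days in a greenhouse, injury was visually rated against untreated controls from 0 (no effect) to 10 (complete control).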
# winter barley = test: Test E winter barley; type: in vivo, Hordeum vulgare; details: Preemergence
# bamyardgrass = test: Test B flood test barnyardgrass; type: in vivo, Echinochloa crus-galli
# In short: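 Read-out is a visual response score from 0 (no effect) to 10 (complete control), assigned by comparison with untreated controls. Treatment was applied at the 2-leaf stage, and plants stayed in the greenhouse for twelve to sixteen days before scoring.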
# green foxtail = test: Test E green foxtail; type: in vivo, Setaria viridis; details: Preemergence
# giant foxtail = test: Test B pre/postemergence giant foxtail; type: in vivo, Setaria faberii
# In short: as §1
# morningglory = test: Test B pre/postemergence morningglory; type: in vivo, Ipomoea hederacea
# In short: as §1
# blackgrass = test: Test E blackgrass; type: in vivo, Alopecurus myosuroides; details: Preemergence
# wild oat = test: Test E wild oat; type: in vivo, Avena fatua; details: Preemergence
# [3] = Rate 500 g/ha, 0 to 100 scale where 0 is no effect and 100 is complete control
# [4] = Rate 1000 g/ha, 0 to 100 scale where 0 is no effect and 100 is complete control
# [5] = Rate 250 g/ha, 0 to 100 scale (0 no effect, 100 complete control)
# [6] = Rate 1000 g/ha, 0 to 100 scale, 0 is no effect and 100 is complete control
# [7] = Postemergence, Rate 62 g/ha, scale 0 to 10, 0 is no effect, 10 is complete control
# [8] = Postemergence, Rate 250 g/ha, scale 0 to 10, 0 no effect, 10 complete control
# [9] = Preemergence, Rate 62 g/ha, scale 0 to 10 (0 no effect, 10 complete control)
# [10] = Preemergence, Rate 125 g/ha, scale 0 to 10 (0 no effect, 10 complete control)
# [11] = Preemergence, Rate 250 g/ha, scale of 0 to 10 where 0 is no effect and 10 is complete control
# [12] = Preemergence, Rate 500 g/ha, scale 0 (no effect) to 10 (complete control)
# [13] = Rate 125 g/ha, Postemergence, scale 0 to 10, 0 no effect, 10 complete control
# [14] = Rate 500 g/ha, Postemergence, scale 0 to 10, 0 no effect, 10 complete control
# [15] = Rate 125 g/ha, Postemergence section (flood test species), scale 0 to 10, 0 no effect, 10 complete control
# [16] = Rate 500 g/ha, listed under Postemergence (flood test species), scale 0 to 10, 0 no effect, 10 complete control
# [17] = flood test, listed under Postemergence, Rate 250 g/ha, scale 0 to 10, 0 no effect, 10 complete control
# [18] = Rate 62 g/ha, 0 to 100 scale, 0 no effect, 100 complete control
# [19] = Rate 125 g/ha, 0 to 100 scale (0 no effect, 100 complete control)
# [20] = Postemergence, Rate 125 g/ha, scale of 0 to 10 where 0 is no effect and 10 is complete control
# [21] = Preemergence, Rate 500 g/ha, scale 0 to 10 (0 no effect, 10 complete control)
# [22] = Rate 62 g/ha, Postemergence, scale of 0 to 10 where 0 is no effect and 10 is complete control
# [23] = Preemergence, Rate 62 g/ha, scale of 0 to 10 where 0 is no effect and 10 is complete control
# [24] = Preemergence, Rate 125 g/ha, 0 is no effect, 10 is complete control
# [25] = Preemergence, Rate 250 g/ha, scale 0 to 10, 0 is no effect, 10 is complete control
# [26] = Rate 250 g/ha, Postemergence, scale 0 to 10, 0 is no effect, 10 is complete control
# [27] = Rate 500 g/ha, Postemergence, scale 0 to 10
smiles,measurement,setting,value
Cc1nn(C)c(C)c1-n1c(=O)on(C(=O)N(c2ccc(F)cc2)C(C)C)c1=O [Compound 75],"Plant response rating, I. Ryegrass","Italian ryegrass; Rate 250 g/ha, 0 to 100 scale",20
same,"Plant response rating, I. Ryegrass",Italian ryegrass; [3],30
same,"Plant response rating, I. Ryegrass",Italian ryegrass; [4],50
same,"Plant response rating, Wheat (winter)",winter wheat [1]; [5],60
same,"Plant response rating, Wheat (winter)",winter wheat [1]; [6],70
same,"Plant response rating, Wheat (winter)","winter wheat [1]; Rate 500 g/ha, 0 to 100 scale, 0 no effect, 100 complete control",75
same,"Plant response rating, Wheat (winter)","winter wheat [2]; Rate 250 g/ha, 0 to 100 scale",10
same,"Plant response rating, Wheat (winter)",winter wheat [2]; [3],20
same,"Plant response rating, Wheat (winter)",winter wheat [2]; [4],65
same,Cocklebur plant response rating,cocklebur; [7],0
same,Cocklebur plant response rating,cocklebur; [8],1
same,Cocklebur plant response rating,cocklebur; [9],0
same,"Plant response rating, Cocklebur",cocklebur; [10],0
same,"Plant response rating, Cocklebur",cocklebur; [11],0
same,Cocklebur plant response rating,cocklebur; [12],0
same,Cocklebur plant response rating,cocklebur; [13],0
same,Cocklebur plant response rating,cocklebur; [14],1
same,"Plant response rating, Barley (winter)","winter barley; Rate 250 g/ha, 0 to 100 scale",10
same,"Plant response rating, Barley (winter)",winter barley; [3],20
same,"Plant response rating, Barley (winter)",winter barley; [4],60
same,Barnyardgrass plant response rating,bamyardgrass; [7],0
same,Barnyardgrass plant response rating,bamyardgrass; [15],0
same,Barnyardgrass plant response rating,bamyardgrass; [16],0
same,Barnyardgrass plant response rating,bamyardgrass; [17],0
same,"Plant response rating, Green foxtail","green foxtail; Rate 250 g/ha, 0 to 100 scale",60
same,"Plant response rating, Green foxtail",green foxtail; [3],60
same,"Plant response rating, Green foxtail",green foxtail; [4],60
same,Giant foxtail plant response rating,giant foxtail; [7],3
same,Giant foxtail plant response rating,giant foxtail; [8],8
same,Giant foxtail plant response rating,giant foxtail; [9],6
same,"Plant response rating, Giant foxtail",giant foxtail; [10],9
same,"Plant response rating, Giant foxtail",giant foxtail; [11],9
same,Giant foxtail plant response rating,giant foxtail; [12],10
same,Giant foxtail plant response rating,giant foxtail; [13],6
same,Giant foxtail plant response rating,giant foxtail; [14],8
same,Morningglory plant response rating,morningglory; [7],1
same,Morningglory plant response rating,morningglory; [8],1
same,Morningglory plant response rating,morningglory; [9],0
same,"Plant response rating, Morningglory",morningglory; [10],0
same,"Plant response rating, Morningglory",morningglory; [11],0
same,Morningglory plant response rating,morningglory; [12],2
same,Morningglory plant response rating,morningglory; [13],1
same,Morningglory plant response rating,morningglory; [14],3
same,"Plant response rating, Blackgrass","blackgrass; Rate 250 g/ha, 0 to 100 scale",20
same,"Plant response rating, Blackgrass",blackgrass; [3],40
same,"Plant response rating, Blackgrass",blackgrass; [4],85
same,"Plant response rating, Wild oat",wild oat; [4],10
CC(C)N(C(=O)n1oc(=O)n(C2CCCCC2)c1=O)c1ccc(Cl)cc1 [Compound 111],"Plant response rating, I. Ryegrass",Italian ryegrass; [18],0
same,"Plant response rating, I. Ryegrass",Italian ryegrass; [19],0
same,"Plant response rating, I. Ryegrass","Italian ryegrass; Rate 250 g/ha, 0 to 100 scale",0
same,"Plant response rating, Wheat (winter)","winter wheat [1]; Rate 62 g/ha, 0 to 100 scale",0
same,"Plant response rating, Wheat (winter)","winter wheat [1]; Rate 125 g/ha, 0 to 100 scale",0
same,"Plant response rating, Wheat (winter)",winter wheat [1]; [5],0
same,"Plant response rating, Wheat (winter)",winter wheat [2]; [18],0
same,"Plant response rating, Wheat (winter)",winter wheat [2]; [19],0
same,"Plant response rating, Wheat (winter)","winter wheat [2]; Rate 250 g/ha, 0 to 100 scale",0
same,Cocklebur plant response rating,cocklebur; [20],0
same,Cocklebur plant response rating,cocklebur; [8],2
same,Cocklebur plant response rating,cocklebur; [9],0
same,"Plant response rating, Cocklebur",cocklebur; [10],0
same,"Plant response rating, Cocklebur",cocklebur; [11],0
same,Cocklebur plant response rating,cocklebur; [21],0
same,Cocklebur plant response rating,cocklebur; [22],0
same,Cocklebur plant response rating,cocklebur; [14],3
same,"Plant response rating, Barley (winter)",winter barley; [18],0
same,"Plant response rating, Barley (winter)",winter barley; [19],0
same,"Plant response rating, Barley (winter)","winter barley; Rate 250 g/ha, 0 to 100 scale",0
same,Barnyardgrass plant response rating,bamyardgrass; [7],0
same,Barnyardgrass plant response rating,bamyardgrass; [15],0
same,Barnyardgrass plant response rating,"bamyardgrass; Rate 250 g/ha, headed Pre-emergence (flood test species), scale 0 to 10 (0 no effect, 10 complete control)",0
same,"Plant response rating, Barnyardgrass","bamyardgrass; Rate 500 g/ha, headed Pre-emergence (flood test species), scale 0 to 10 (0 no effect, 10 complete control)",0
same,Barnyardgrass plant response rating,bamyardgrass; [16],0
same,Barnyardgrass plant response rating,"bamyardgrass; Rate 1000 g/ha, Pre-emergence (as headed), scale 0 to 10",0
same,Barnyardgrass plant response rating,"bamyardgrass; Rate 2000 g/ha, Pre-emergence (as headed), scale 0 to 10, 0 no effect, 10 complete control",9
same,Barnyardgrass plant response rating,bamyardgrass; [17],0
same,"Plant response rating, Green foxtail",green foxtail; [18],0
same,"Plant response rating, Green foxtail",green foxtail; [19],0
same,"Plant response rating, Green foxtail","green foxtail; Rate 250 g/ha, 0 to 100 scale",10
same,Giant foxtail plant response rating,giant foxtail; [20],2
same,Giant foxtail plant response rating,giant foxtail; [8],5
same,Giant foxtail plant response rating,giant foxtail; [9],8
same,"Plant response rating, Giant foxtail",giant foxtail; [10],9
same,"Plant response rating, Giant foxtail",giant foxtail; [11],10
same,Giant foxtail plant response rating,giant foxtail; [21],10
same,Giant foxtail plant response rating,giant foxtail; [22],2
same,Giant foxtail plant response rating,giant foxtail; [14],9
same,Morningglory plant response rating,morningglory; [20],5
same,Morningglory plant response rating,morningglory; [8],5
same,Morningglory plant response rating,morningglory; [9],0
same,"Plant response rating, Morningglory",morningglory; [10],0
same,"Plant response rating, Morningglory",morningglory; [11],0
same,Morningglory plant response rating,morningglory; [21],0
same,Morningglory plant response rating,morningglory; [22],4
same,Morningglory plant response rating,morningglory; [14],8
same,"Plant response rating, Blackgrass",blackgrass; [18],0
same,"Plant response rating, Blackgrass",blackgrass; [19],0
same,"Plant response rating, Blackgrass","blackgrass; Rate 250 g/ha, 0 to 100 scale",0
same,"Plant response rating, Wild oat",wild oat; [18],0
same,"Plant response rating, Wild oat",wild oat; [19],0
CC(C)Cn1c(=O)on(C(=O)N(c2ccc(F)cc2)C(C)C)c1=O [Compound 169],I. Ryegrass plant response rating (0 to 100 scale),Italian ryegrass; Rate 250 g/ha,75
same,"Plant response rating, I. Ryegrass",Italian ryegrass; [3],80
same,"Plant response rating, I. Ryegrass",Italian ryegrass; [4],90
same,"Plant response rating, Wheat (winter)",winter wheat [1]; [6],65
same,Wheat (winter) plant response rating,"winter wheat [1]; Rate 250 g/ha, 0 to 100 scale where 0 is no effect and 100 is complete control",40
same,"Plant response rating, Wheat (winter)","winter wheat [1]; Rate 500 g/ha, 0 to 100 scale, 0 is no effect, 100 is complete control",50
same,Wheat (winter) plant response rating (0 to 100 scale),winter wheat [2]; Rate 250 g/ha,10
same,"Plant response rating, Wheat (winter)",winter wheat [2]; [3],40
same,"Plant response rating, Wheat (winter)",winter wheat [2]; [4],65
same,Cocklebur plant response rating,cocklebur; [20],0
same,Cocklebur plant response rating,cocklebur; [23],0
same,Cocklebur plant response rating (0 to 10 scale),cocklebur; [24],0
same,Cocklebur plant response rating,cocklebur; [25],0
same,Cocklebur plant response rating,cocklebur; [21],0
same,Cocklebur plant response rating,cocklebur; [22],0
same,"Plant response rating, Cocklebur",cocklebur; [26],0
same,Cocklebur plant response rating,cocklebur; [27],3
same,Barley (winter) plant response rating (0 to 100 scale),winter barley; Rate 250 g/ha,30
same,"Plant response rating, Barley (winter)",winter barley; [3],30
same,"Plant response rating, Barley (winter)",winter barley; [4],50
same,Barnyardgrass plant response rating,"bamyardgrass; Postemergence (flood test species), Rate 125 g/ha, scale of 0 to 10 where 0 is no effect and 10 is complete control",0
same,Barnyardgrass plant response rating,"bamyardgrass; Rate 62 g/ha, Postemergence section, flood test species, scale of 0 to 10 where 0 is no effect and 10 is complete control",0
same,"Plant response rating, Barnyardgrass","bamyardgrass; Rate 250 g/ha, Postemergence (flood test), scale 0 to 10, 0 is no effect, 10 is complete control",0
same,Barnyardgrass plant response rating,"bamyardgrass; Rate 500 g/ha, listed under Postemergence (flood test species), scale 0 to 10",0
same,Green foxtail plant response rating (0 to 100 scale),green foxtail; Rate 250 g/ha,60
same,"Plant response rating, Green foxtail",green foxtail; [3],70
same,"Plant response rating, Green foxtail",green foxtail; [4],95
same,Giant foxtail plant response rating,giant foxtail; [20],2
same,Giant foxtail plant response rating,giant foxtail; [23],10
same,Giant foxtail plant response rating (0 to 10 scale),giant foxtail; [24],10
same,Giant foxtail plant response rating,giant foxtail; [25],10
same,Giant foxtail plant response rating,giant foxtail; [21],10
same,Giant foxtail plant response rating,giant foxtail; [22],0
same,"Plant response rating, Giant foxtail",giant foxtail; [26],6
same,Giant foxtail plant response rating,giant foxtail; [27],9
same,Morningglory plant response rating,morningglory; [20],1
same,Morningglory plant response rating,morningglory; [23],0
same,Morningglory plant response rating (0 to 10 scale),morningglory; [24],0
same,Morningglory plant response rating,morningglory; [25],0
same,Morningglory plant response rating,morningglory; [21],0
same,Morningglory plant response rating,morningglory; [22],1
same,"Plant response rating, Morningglory",morningglory; [26],5
same,Morningglory plant response rating,morningglory; [27],7
same,Blackgrass plant response rating (0 to 100 scale),blackgrass; Rate 250 g/ha,30
same,"Plant response rating, Blackgrass",blackgrass; [3],60
same,"Plant response rating, Blackgrass",blackgrass; [4],55
same,Wild oat plant response rating (0 to 100 scale),wild oat; Rate 250 g/ha,50
same,"Plant response rating, Wild oat",wild oat; [3],30
same,"Plant response rating, Wild oat",wild oat; [4],40
